Format in all cases: functional, cell-based
The target of assay [1] is T1, 5-hydroxytryptamine receptor 6 (Homo sapiens, UniProt P50406). The experiment in a line: Antagonist activity at human recombinant 5HT6 receptor expressed in HeLa cells assessed as inhibition of 5HT-induced intracellular calcium level at 10 uM incubated for 15 mins prior to 5HT-induction measured after 1 hr by fluo-4-AM-based fluorimetry. For orientation: Calcium flux is commonly read through the fluorescence of an indicator in the cells.

Assay [2] deals with T1, 5-hydroxytryptamine receptor 6. The experiment in a line: Antagonist activity at human 5HT6 receptor expressed in HEK293 cells assessed as inhibition of 5HT-induced intracellular calcium level at 10 uM incubated for 15 mins prior to 5HT-induction measured after 1 hr by fluo-4-AM-based fluorimetry.
Assay [3] concerns the target 5-hydroxytryptamine receptor 7 (Homo sapiens) (UniProt P34969). The experiment in a line: Antagonist activity at human 5HT7 receptor expressed in HEK293 cells assessed as inhibition of 5HT-induced intracellular calcium level at 10 uM incubated for 15 mins prior to 5HT-induction measured after 1 hr by fluo-4-AM-based fluorimetry.
In assay [4] the target is 5-hydroxytryptamine receptor 4 (Homo sapiens) (UniProt Q13639). As to the kind of experiment: Antagonist activity at human 5HT4 receptor expressed in HEK293 cells assessed as inhibition of 5HT-induced intracellular calcium level at 10 uM incubated for 15 mins prior to 5HT-induction measured after 1 hr by fluo-4-AM-based fluorimetry.
The target in assay [5] is T1, 5-hydroxytryptamine receptor 6. The experiment in a line: Antagonist activity at human recombinant 5HT6 receptor expressed in HeLa cells assessed as inhibition of 5HT-induced intracellular calcium level incubated for 15 mins prior to 5HT-induction measured after 1 hr by fluo-4-AM-based fluorimetry.

The structures appear in SMILES notation.

The values that follow come from ChEMBL document CHEMBL2010752, “Synthesis and biological evaluation of benzoisothiazole derivatives possessing N,N-dimethylformimidamide group as 5-HT₆ receptor antagonists” (Bioorg Med Chem, 2012).

Sequence of 5-hydroxytryptamine receptor 4 (Homo sapiens) (Q13639 whole entry): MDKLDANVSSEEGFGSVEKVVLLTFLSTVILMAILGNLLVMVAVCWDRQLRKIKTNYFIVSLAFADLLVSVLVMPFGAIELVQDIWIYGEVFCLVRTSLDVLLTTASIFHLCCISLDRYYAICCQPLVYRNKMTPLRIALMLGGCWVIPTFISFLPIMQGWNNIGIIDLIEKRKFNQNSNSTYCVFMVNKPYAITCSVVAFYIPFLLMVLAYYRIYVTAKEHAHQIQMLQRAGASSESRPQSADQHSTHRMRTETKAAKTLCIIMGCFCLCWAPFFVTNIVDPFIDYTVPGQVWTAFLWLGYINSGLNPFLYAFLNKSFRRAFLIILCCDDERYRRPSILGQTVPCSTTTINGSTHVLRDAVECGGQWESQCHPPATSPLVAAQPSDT
Sequence of 5-hydroxytryptamine receptor 7 (Homo sapiens) (P34969 whole entry): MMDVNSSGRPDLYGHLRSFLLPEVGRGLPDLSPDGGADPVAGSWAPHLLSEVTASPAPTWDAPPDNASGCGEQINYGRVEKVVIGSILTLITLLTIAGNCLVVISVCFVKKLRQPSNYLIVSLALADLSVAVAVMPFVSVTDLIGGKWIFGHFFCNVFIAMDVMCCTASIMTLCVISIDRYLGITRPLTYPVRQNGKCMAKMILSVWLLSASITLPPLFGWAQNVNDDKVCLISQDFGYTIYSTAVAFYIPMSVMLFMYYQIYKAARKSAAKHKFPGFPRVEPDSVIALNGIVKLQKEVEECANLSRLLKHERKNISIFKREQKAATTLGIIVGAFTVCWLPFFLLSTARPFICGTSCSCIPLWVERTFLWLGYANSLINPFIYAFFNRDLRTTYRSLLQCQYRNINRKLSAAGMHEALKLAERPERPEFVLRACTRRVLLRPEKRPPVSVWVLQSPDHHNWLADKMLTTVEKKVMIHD
T1 sequence (P50406 whole entry): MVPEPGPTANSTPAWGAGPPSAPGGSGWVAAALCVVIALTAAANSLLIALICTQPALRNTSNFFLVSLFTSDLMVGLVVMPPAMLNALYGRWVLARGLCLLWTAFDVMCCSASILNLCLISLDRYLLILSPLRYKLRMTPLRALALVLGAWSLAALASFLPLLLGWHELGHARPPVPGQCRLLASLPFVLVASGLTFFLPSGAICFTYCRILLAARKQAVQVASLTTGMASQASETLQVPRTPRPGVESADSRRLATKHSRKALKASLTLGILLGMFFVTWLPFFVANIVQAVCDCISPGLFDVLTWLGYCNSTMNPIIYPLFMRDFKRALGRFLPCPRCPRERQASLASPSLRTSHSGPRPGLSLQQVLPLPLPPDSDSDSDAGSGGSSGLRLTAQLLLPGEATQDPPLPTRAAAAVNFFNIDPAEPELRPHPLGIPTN

As usually defined, the inhibition is how much of the control response was suppressed. Regarding `CN(C)/C=N/c1nsc2ccc(NS(=O)(=O)c3cccc4cccnc34)cc12`, in assay [1], the inhibition was 12.1%.
On the same count and under the same terms, as for `CN(C)/C=N/c1nsc2ccc(NS(=O)(=O)c3ccccc3)cc12`, the figure is 42.6%; as for `CC(C)c1ccc(S(=O)(=O)Nc2ccc3snc(/N=C/N(C)C)c3c2)cc1`, 27%.
For orientation: IC50 means the concentration at which inhibition is half-maximal. For the compound `CN(C)/C=N/c1nsc2ccc(NS(=O)(=O)c3ccc4ccccc4c3)cc12`, the inhibition in assay [2] is 98.8%; in assay [3] it was 28.9%; in assay [1], 99.1%; in assay [4], 17.4%. Moreover, the IC50 in assay [5] came to 0.44 µM.
Turning to `CN(C)/C=N/c1nsc2ccc(NS(=O)(=O)c3ccc(F)cc3)cc12`, the inhibition in assay [1] was 20.2%.
Still for that read-out and setting: in the case of `CN(C)/C=N/c1nsc2ccc(NS(=O)(=O)c3c(F)cccc3F)cc12` it was 10.8%.
On to `CN(C)/C=N/c1nsc2ccc(NS(=O)(=O)c3ccc(Cl)cc3)cc12`, for which the inhibition is 53.9% in assay [2], 40.2% in assay [3], 51.1% in assay [1] and 11.6% in assay [4]. Moreover, in assay [5], the IC50 was found to be 3.6 µM.
Regarding `CN(C)/C=N/c1nc2cc(NS(=O)(=O)c3cccc4ccccc34)ccc2s1`, the inhibition in assay [1] is 25.5%.
Same read-out and setting: as for `CN(C)/C=N/c1nsc2ccc(NS(=O)(=O)c3ccc([N+](=O)[O-])cc3)cc12`, the figure is 9.8%; as for `CN(C)/C=N/c1nc2cc(NS(=O)(=O)c3ccc4ccccc4c3)ccc2s1`, 66.3%; as for `CN(C)/C=N/c1nsc2ccc(NS(=O)(=O)c3cccc4ccccc34)cc12`, 43.5%.
As for `Cc1ccc(S(=O)(=O)Nc2ccc3snc(/N=C/N(C)C)c3c2)cc1`, the inhibition in assay [2] came to 86.5%; in assay [3], 68.8%; in assay [1], 84.3%; in assay [4], 21.9%. Also, the IC50 in assay [5] was found to be 0.36 µM.
